Assay results as given in the NIST ThermoML archive (doi:10.1016/j.fluid.2005.08.011).
Numbers after ± are expanded uncertainties.

Settings: Gas, isochoric method

CCF [fluoroethane]
Settings | mass density [kg/m3]
300.16 K, 642.2 kPa | 13.92 ± 0.088
305.16 K, 656.6 kPa | 13.917 ± 0.088
310.14 K, 670.4 kPa | 13.913 ± 0.088
312.16 K, 1205.6 kPa | 27.61 ± 0.11
314.16 K, 1218.3 kPa | 27.607 ± 0.11
315.15 K, 684.8 kPa | 13.91 ± 0.087
316.15 K, 1231.8 kPa | 27.605 ± 0.11
318.15 K, 1244.1 kPa | 27.602 ± 0.11
320.14 K, 698.5 kPa | 13.906 ± 0.086
322.16 K, 1268.7 kPa | 27.596 ± 0.11
324.15 K, 1614.6 kPa | 37.54 ± 0.14
325.14 K, 712.3 kPa | 13.903 ± 0.082
326.14 K, 1634.4 kPa | 37.536 ± 0.14
326.16 K, 1293.4 kPa | 27.591 ± 0.11
328.15 K, 1652.5 kPa | 37.533 ± 0.14
330.15 K, 1670.2 kPa | 37.529 ± 0.14
330.16 K, 726.1 kPa | 13.899 ± 0.081
330.16 K, 1317.6 kPa | 27.585 ± 0.11
332.15 K, 2022.6 kPa | 48.84 ± 0.18
334.16 K, 1341.9 kPa | 27.58 ± 0.11
334.16 K, 1704.9 kPa | 37.521 ± 0.14
334.16 K, 2047.7 kPa | 48.835 ± 0.18
335.15 K, 739.5 kPa | 13.896 ± 0.08
336.16 K, 2072.5 kPa | 48.83 ± 0.17
338.12 K, 2287.8 kPa | 56.23 ± 0.2
338.16 K, 1739 kPa | 37.514 ± 0.14
338.17 K, 1365.6 kPa | 27.574 ± 0.11
338.2 K, 2096.6 kPa | 48.825 ± 0.18
339.16 K, 2108.2 kPa | 48.823 ± 0.18
340.12 K, 2318.8 kPa | 56.224 ± 0.2
340.15 K, 752.5 kPa | 13.892 ± 0.078
340.15 K, 2419 kPa | 60.32 ± 0.22
340.16 K, 2120.6 kPa | 48.821 ± 0.18
342.12 K, 2347.8 kPa | 56.219 ± 0.2
342.16 K, 1388.9 kPa | 27.569 ± 0.11
342.16 K, 2144.2 kPa | 48.816 ± 0.18
342.16 K, 2450.7 kPa | 60.314 ± 0.22
342.17 K, 1773.5 kPa | 37.506 ± 0.14
344.12 K, 2376.7 kPa | 56.213 ± 0.2
344.16 K, 2167.5 kPa | 48.811 ± 0.17
344.16 K, 2482.2 kPa | 60.308 ± 0.22
346.12 K, 2404.5 kPa | 56.208 ± 0.2
346.14 K, 2707.5 kPa | 68.66 ± 0.24
346.15 K, 768.9 kPa | 13.888 ± 0.076
346.15 K, 1412.4 kPa | 27.563 ± 0.11
346.15 K, 2513.1 kPa | 60.302 ± 0.22
346.16 K, 1806.7 kPa | 37.499 ± 0.14
346.16 K, 2190.7 kPa | 48.806 ± 0.17
347.15 K, 2725.9 kPa | 68.657 ± 0.24
348.13 K, 2432.7 kPa | 56.202 ± 0.2
348.15 K, 2743.8 kPa | 68.653 ± 0.24
348.16 K, 2214 kPa | 48.801 ± 0.17
348.16 K, 2543 kPa | 60.296 ± 0.22
350.15 K, 1435.8 kPa | 27.558 ± 0.11
350.15 K, 2460.5 kPa | 56.196 ± 0.2
350.15 K, 2779.8 kPa | 68.646 ± 0.25
350.16 K, 1840.5 kPa | 37.491 ± 0.14
350.16 K, 2237.2 kPa | 48.796 ± 0.17
350.16 K, 2573.4 kPa | 60.29 ± 0.22
350.16 K, 2978.2 kPa | 78.21 ± 0.28
351.16 K, 2999.9 kPa | 78.206 ± 0.27
352.15 K, 2488.2 kPa | 56.191 ± 0.2
352.15 K, 2815 kPa | 68.639 ± 0.24
352.16 K, 2260.1 kPa | 48.791 ± 0.17
352.16 K, 2603.3 kPa | 60.284 ± 0.21
352.17 K, 3021.2 kPa | 78.202 ± 0.27
353.14 K, 3180.2 kPa | 85.66 ± 0.3
353.16 K, 3042.3 kPa | 78.198 ± 0.27
354.15 K, 3204.5 kPa | 85.656 ± 0.3
354.16 K, 790.7 kPa | 13.883 ± 0.074
354.16 K, 1458.8 kPa | 27.552 ± 0.1
354.16 K, 1873.7 kPa | 37.484 ± 0.14
354.16 K, 2283 kPa | 48.787 ± 0.17
354.16 K, 2515.3 kPa | 56.185 ± 0.2
354.16 K, 2633.4 kPa | 60.278 ± 0.21
354.16 K, 2850.7 kPa | 68.633 ± 0.24
354.17 K, 3062.9 kPa | 78.194 ± 0.28
355.15 K, 3227.8 kPa | 85.651 ± 0.3
356.14 K, 2542.3 kPa | 56.18 ± 0.2
356.15 K, 2663.1 kPa | 60.272 ± 0.21
356.15 K, 2885.7 kPa | 68.626 ± 0.24
356.16 K, 2305.7 kPa | 48.782 ± 0.17
356.16 K, 3104.4 kPa | 78.187 ± 0.27
356.26 K, 3251.2 kPa | 85.647 ± 0.3
357.26 K, 3274.8 kPa | 85.642 ± 0.3
358.15 K, 1481.8 kPa | 27.547 ± 0.11
358.15 K, 1906.7 kPa | 37.477 ± 0.14
358.15 K, 2569.2 kPa | 56.174 ± 0.19
358.15 K, 2920 kPa | 68.619 ± 0.24
358.15 K, 3297.7 kPa | 85.639 ± 0.31
358.16 K, 2328.4 kPa | 48.777 ± 0.17
358.16 K, 2692.5 kPa | 60.266 ± 0.21
358.16 K, 3145.7 kPa | 78.179 ± 0.27
358.16 K, 3506.4 kPa | 97.915 ± 0.34
359.16 K, 3534.2 kPa | 97.91 ± 0.34
360.15 K, 2595.9 kPa | 56.168 ± 0.19
360.15 K, 2954.3 kPa | 68.612 ± 0.24
360.16 K, 2721.3 kPa | 60.26 ± 0.21
360.16 K, 3186 kPa | 78.171 ± 0.27
360.16 K, 3343.9 kPa | 85.63 ± 0.3
360.16 K, 3562.2 kPa | 97.905 ± 0.34
360.17 K, 2350.8 kPa | 48.772 ± 0.17
360.17 K, 3660.7 kPa | 104.59 ± 0.38
361.15 K, 3589.9 kPa | 97.9 ± 0.33
361.16 K, 3691 kPa | 104.585 ± 0.37
362.14 K, 2622.7 kPa | 56.163 ± 0.19
362.15 K, 811.8 kPa | 13.877 ± 0.072
362.15 K, 2988.3 kPa | 68.605 ± 0.23
362.15 K, 3226.2 kPa | 78.163 ± 0.27
362.15 K, 3389.2 kPa | 85.622 ± 0.3
362.15 K, 3617 kPa | 97.896 ± 0.34
362.16 K, 1505 kPa | 27.541 ± 0.1
362.16 K, 1939.6 kPa | 37.469 ± 0.14
362.16 K, 3721.4 kPa | 104.58 ± 0.37
362.17 K, 2373 kPa | 48.767 ± 0.17
362.17 K, 2750.9 kPa | 60.254 ± 0.21
363.15 K, 3644.5 kPa | 97.891 ± 0.33
363.16 K, 3751.4 kPa | 104.574 ± 0.37
364.15 K, 2649.2 kPa | 56.157 ± 0.19
364.15 K, 3023 kPa | 68.598 ± 0.23
364.15 K, 3434.4 kPa | 85.613 ± 0.3
364.15 K, 3780.8 kPa | 104.569 ± 0.36
364.16 K, 2394.9 kPa | 48.762 ± 0.17
364.16 K, 3266.5 kPa | 78.156 ± 0.27
364.16 K, 3671.6 kPa | 97.886 ± 0.34
364.17 K, 2779.6 kPa | 60.248 ± 0.21
365.16 K, 3698.9 kPa | 97.881 ± 0.33
365.16 K, 3810.4 kPa | 104.564 ± 0.36
366.14 K, 1527.7 kPa | 27.536 ± 0.11
366.14 K, 2675.7 kPa | 56.152 ± 0.19
366.15 K, 1971.5 kPa | 37.462 ± 0.13
366.15 K, 3056.7 kPa | 68.592 ± 0.23
366.15 K, 3306.2 kPa | 78.148 ± 0.26
366.15 K, 3478.5 kPa | 85.605 ± 0.29
366.15 K, 3725.2 kPa | 97.876 ± 0.33
366.15 K, 3839.8 kPa | 104.559 ± 0.36
366.16 K, 2417.4 kPa | 48.757 ± 0.17
366.16 K, 2808.4 kPa | 60.242 ± 0.21
367.15 K, 3751.8 kPa | 97.871 ± 0.33
367.15 K, 3869 kPa | 104.554 ± 0.36
368.14 K, 2702 kPa | 56.146 ± 0.19
368.14 K, 3090.7 kPa | 68.585 ± 0.23
368.15 K, 3346 kPa | 78.14 ± 0.26
368.15 K, 3523.3 kPa | 85.596 ± 0.29
368.15 K, 3898.1 kPa | 104.548 ± 0.36
368.16 K, 2439.4 kPa | 48.753 ± 0.16
368.16 K, 2837.3 kPa | 60.236 ± 0.2
368.16 K, 3778.8 kPa | 97.866 ± 0.33
369.14 K, 3805.1 kPa | 97.861 ± 0.33
369.15 K, 3927.3 kPa | 104.543 ± 0.36
370.12 K, 1550.1 kPa | 27.531 ± 0.1
370.13 K, 3123.8 kPa | 68.578 ± 0.23
370.14 K, 2728 kPa | 56.14 ± 0.19
370.14 K, 3568 kPa | 85.588 ± 0.29
370.14 K, 3831.8 kPa | 97.857 ± 0.33
370.15 K, 833.2 kPa | 13.872 ± 0.071
370.15 K, 2461.8 kPa | 48.748 ± 0.17
370.15 K, 3385.9 kPa | 78.132 ± 0.26
370.15 K, 3956.2 kPa | 104.538 ± 0.35
370.16 K, 2004 kPa | 37.454 ± 0.13
370.16 K, 2865.8 kPa | 60.23 ± 0.2
